# The supplement of paper PMC10307832
# How the values were obtained:
# Test in all cases: relative viability (nuclei count vs DMSO), 5 days (fraction); higher = more cells survive
# TGX 221 + Linsitinib = compound: CC1=CN2C(=O)C=C(N=C2C(=C1)C(C)NC3=CC=CC=C3)N4CCOCC4 [TGX 221] + C[C@]1(O)C[C@@H](c2nc(-c3ccc4ccc(-c5ccccc5)nc4c3)c3c(N)nccn32)C1 [Linsitinib] (partner 1 µM)
# Summary of the method: (§1)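 The day after seeding in 1536-well plates, lung cancer cell lines were treated by pin tool with a single drug, or with a fixed anchor-drug dose together with five library-drug doses (not always all listed) in √10 steps. After 5 days, a combined fix-and-stain solution (final 0.05% Triton X-100, 1% formaldehyde, 1 ug/ml Hoechst) was added. Nuclei counted on 4× images gave relative viability as treated counts over vehicle counts, reported as the median of duplicate plates.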
# [1] = compound: O=C(CCCCCCNC(=O)c1cnc(N(c2ccccc2)c2ccccc2)nc1)NO [Ricolinostat] + Nc1nc2[nH]cc(CCc3ccc(C(=O)N[C@@H](CCC(=O)O)C(=O)O)cc3)c2c(=O)[nH]1 [Pemetrexed] (partner 0.2 µM)
# Summary of the method: as §1
# [2] = compound: O=C(CCCCCCNC(=O)c1cnc(N(c2ccccc2)c2ccccc2)nc1)NO [Ricolinostat] + CC(=O)c1c(C)c2cnc(Nc3ccc(N4CCNCC4)cn3)nc2n(C2CCCC2)c1=O [Palbociclib] (partner 0.5 µM)
# Summary of the method: as §1
# TGX 221 + Pictilisib = compound: CC1=CN2C(=O)C=C(N=C2C(=C1)C(C)NC3=CC=CC=C3)N4CCOCC4 [TGX 221] + CS(=O)(=O)N1CCN(Cc2cc3nc(-c4cccc5[nH]ncc45)nc(N4CCOCC4)c3s2)CC1 [Pictilisib] (partner 1 µM)
# Summary of the method: as §1
Cell Line,relative viability (TGX 221 + Linsitinib; first compound 0.08 µM),relative viability (TGX 221 + Linsitinib; first compound 0.253 µM),relative viability (TGX 221 + Linsitinib; first compound 0.8 µM),relative viability (TGX 221 + Linsitinib; first compound 2.53 µM),relative viability (TGX 221 + Linsitinib; first compound 8 µM),relative viability ([1]; first compound 0.08 µM),relative viability ([1]; first compound 0.253 µM),relative viability ([1]; first compound 0.8 µM),relative viability ([1]; first compound 2.53 µM),relative viability ([2]; first compound 0.08 µM),relative viability ([2]; first compound 0.253 µM),relative viability ([2]; first compound 0.8 µM),relative viability ([2]; first compound 2.53 µM),relative viability (TGX 221 + Pictilisib; first compound 0.08 µM),relative viability (TGX 221 + Pictilisib; first compound 0.253 µM),relative viability (TGX 221 + Pictilisib; first compound 0.8 µM),relative viability (TGX 221 + Pictilisib; first compound 2.53 µM),relative viability (TGX 221 + Pictilisib; first compound 8 µM)
HCC-827,0.999,1.05,0.94,0.986,0.886,0.23,0.256,0.232,0.212,0.335,0.548,0.487,0.573,1.02,0.979,1.09,0.896,0.732
HOP-62,1.06,1.09,1.02,1.01,0.889,0.304,0.28,0.337,0.319,0.457,0.406,0.355,0.416,0.694,0.742,0.544,0.682,0.689
IA-LM,0.685,0.509,0.58,0.621,0.685,–,–,–,–,–,–,–,–,0.276,–,0.423,0.288,0.412
LC-2-ad,0.786,–,0.731,0.668,0.595,0.32,0.272,0.28,0.269,0.52,0.418,0.465,0.488,0.453,–,0.444,0.491,0.473
LCLC-97TM1,0.145,0.187,0.199,0.167,0.188,0.152,0.157,0.137,0.157,0.198,0.202,0.232,0.212,0.197,0.196,0.165,0.164,0.188
LCLC-103H,1.11,1.12,0.93,0.846,1.2,0.488,0.463,0.476,0.516,0.472,0.413,0.495,0.514,0.566,0.592,0.678,0.577,0.609
LK-2,0.523,0.548,0.627,0.625,0.625,0.217,0.256,0.231,0.216,0.774,0.548,0.599,0.605,0.583,0.782,0.597,0.515,0.659
LOU-NH91,0.974,0.912,0.931,0.917,0.794,–,0.327,0.378,0.367,–,0.526,0.587,0.514,0.568,0.532,0.528,0.53,0.531
LU99A,0.478,0.481,0.512,0.536,0.492,0.188,0.159,0.184,0.156,0.43,0.399,0.396,0.355,0.268,0.303,0.32,0.357,0.317
LXF-289,0.956,0.965,0.98,0.931,1,0.935,0.775,0.895,0.792,0.618,0.552,0.599,0.609,0.789,0.751,0.711,0.746,0.729
NCI-H23,0.471,0.532,0.525,0.531,0.477,0.562,0.642,0.684,0.737,0.532,0.509,0.448,0.615,0.518,0.465,0.446,0.439,0.451
NCI-H322M,0.849,0.732,0.708,0.698,1.02,0.61,0.607,0.639,0.646,0.495,0.493,0.478,0.52,0.399,0.479,0.525,0.477,0.478
NCI-H522,–,–,–,–,–,0.972,1.03,1.05,0.924,1.14,1.18,1.08,1.21,–,–,–,–,–
NCI-H596,1.13,0.913,0.972,0.972,0.985,0.511,0.527,0.504,0.52,–,–,–,–,0.4,0.439,0.409,0.389,0.466
NCI-H727,0.406,0.29,0.264,0.269,0.403,–,–,–,–,0.645,0.627,0.705,0.683,0.455,0.464,0.402,0.43,0.356
NCI-H1299,0.976,1.04,1.04,0.902,0.969,–,–,–,–,–,–,–,–,0.74,0.728,0.787,0.654,0.617
NCI-H1563,1.2,1.2,0.909,0.868,0.755,0.788,0.767,0.74,0.726,–,–,–,–,0.651,0.622,0.573,0.634,0.638
NCI-H1648,–,–,–,–,–,–,0.596,0.629,0.521,–,0.305,0.252,0.196,–,–,–,–,–
NCI-H1650,–,–,–,–,–,0.379,0.403,0.337,0.349,0.322,0.294,0.344,0.275,0.524,0.524,0.645,0.621,0.508
NCI-H1703,0.678,0.522,0.48,0.487,0.636,–,–,–,–,–,–,–,–,0.234,0.264,0.251,0.202,0.234
NCI-H2170,–,–,–,–,–,0.247,0.242,0.281,0.244,0.388,0.405,0.385,0.354,0.312,0.288,0.325,0.376,0.357
NCI-H2342,–,–,–,–,–,0.734,0.785,0.719,0.637,0.555,0.473,0.509,0.577,–,–,–,–,–
SW 900,–,–,–,–,–,0.496,0.488,0.491,0.441,0.432,0.481,0.453,0.487,–,–,–,–,–
